{"source": "paper PMC4929566", "about": "“The metabolome of [2-^14C](−)-epicatechin in humans: implications for the assessment of efficacy, safety, and mechanisms of action of polyphenolic bioactives” (Scientific Reports, 2016)", "key": {"[1]": {"test": "Metabolite profiling and quantification in urine (HPLC-MS2 with on-line radioactivity detector)", "assay_type": "in vivo, humans", "conditions": "human", "protocol": "(§1) The study was a single-center, open-label, and non-randomized study with two distinct elements: a run-in phase to establish a more defined dietary background of dietary flavanols and procyanidins and the subsequent ^14C-EC ADME study (Fig. 1B). Participants (n = 12) were enrolled in the run-in phase (day –17 to day –4) and asked to supplement their daily diet for 14 days with a commercially available flavanol-containing cocoa-based drink (250 mg cocoa flavanols; 40 mg of EC). This was followed by a 4-day period (day –4 to 0) of a low-flavanol diet. One day (study day -1) prior to the initialization of the ^14C-EC ADME study, all eligible participants were accommodated under controlled conditions at a metabolic research facility (Covance Clinical Pharmacology Inc., Wisconsin) until completion of the study. Based on the compliance of the first part of the study, 8 participants were selected to participate in the ^14C-EC ADME study. During the ^14C-EC ADME study (Fig. 1B.), volunteers received a low-flavanol, standardized high-fiber diet, and were encouraged to maintain an adequate level of hydration (water ad libitum). Volunteers were asked to fast for 8 h before the initiation of the study and for at least 4 h after the intake of the ^14C-EC test drink (water ad libitum). Venous blood samples were taken using Vacutainer collection tubes, containing potassium EDTA at 0 h (just prior to ^14C-EC ingestion), and at 0.25, 0.5, 1, 1.5, 2, 2.5, 3, 4, 6, 8, 10, 12, 16, 24, 36, and 48 h after test drink consumption. Plasma was obtained by whole blood centrifugation at 2000 × g for 15 min at 5 °C, separated into aliquots and stored at −80 °C until analysis. All urine and feces from the time just prior to the consumption of the test drink were collected at different time intervals for radioactivity and metabolite profiling. Clinical parameters and laboratory evaluations of participants were assessed at screening, on study day –1, and after completing the study, as detailed in Supplementary Methods.\n(§2) Samples were processed as described previously[18] and analyzed by HPLC-MS^2 in conjunction with an on-line HPLC-radioactivity monitor as described in SI Materials and Methods. Identification of metabolites involved comparing the retention time with authentic standards and MS^2 fragmentation patterns (Supplementary Methods). Quantification of metabolites in urine was based on HPLC radioactivity peak area (limit of quantification: 10^3 dpm). Due to the low levels of radioactivity, quantification in plasma was based on targeted HPLC-MS^2 using standard curves obtained with authentic standards (Supplementary Methods).\nHPLC-MS identifications of radiolabeled [2-14C](−)-epicatechin metabolites in urine Urine was analyzed with radioactivity and mass spectrometry (MS) detection using a 250 mm x 4.6 mm i.d. 5 µm Luna Phenyl-Hexyl column (Phenomenex, Macclesfield, UK) […]\nformic acid. Metabolite identification was performed by 1) co-chromatography of metabolites with reference compounds and a comparison of their MS fragmentation patterns 2, 2) by comparing m/z fragmentation patterns with earlier in-house observed […]\npatterns to databases of metabolites reported in earlier polyphenol feeding studies5-7.\nSupplementary Table S2, which also provides information on the MSI MI (Metabolite Standards Initiative – Metabolites Identification) level, a confidence level for identification where level 1 stands for fully elucidated (i.e., by comparison with a standard) and level 2 for a well characterized, but not yet fully structurally elucidated 8"}, "[2]": {"test": "SREM profile in plasma after intragastric 14C-EC, mouse", "assay_type": "in vivo, C57BL/6 mice", "conditions": "30 min after 2 mg/kg BW intragastric 14C-EC", "protocol": "(§3) To assess the profile of SREMs in rodents, Sprague-Dawley rats (male, 9–10 week old, 270 ± 16 g of BW) and C57BL/6 mice (20 ± 1 g) were administered by gavage 2 mg/kg BW of ^14C-EC (corresponding to ≈10.6 μCi/rat and 6.7 μCi/mouse). Blood samples were collected 30 min after administration. Plasma was obtained by centrifugation at 4 °C for 15 min at 1800xg, separated in aliquots and analyzed by HPLC as described previously[18] with an on-line radioactivity detector (Radiomatic 610TR Flow System Analyzer, PerkinElmer, Inc., Waltham, Mass)."}, "[3]": {"test": "Metabolite profiling and pharmacokinetics in plasma (targeted HPLC-MS2)", "assay_type": "in vivo, humans", "conditions": "human, oral 60 mg 14C-EC", "protocol": "as §1, §2\nData are expressed as mean values ± standard error, or as otherwise specified. Pharmacokinetic parameters were calculated using non-compartmental analysis with WinNonlin (Pharsight Corporation, Version 5.2).\n5-20% acetonitrile in 0.1 % formic acid. Supplementary Table S2 provides details of HPLC retention times and the m/z values that were monitored.\nSupplementary Table S2. Detection of (−)-epicatechin metabolites. HPLC retention times and selected reaction monitoring ions used for the HPLC-MS analysis of (−)-epicatechin metabolites in plasma. […]\nStructurally related (-)-epicatechin metabolites in humans: assessment using de novo chemically synthesized authentic standards. Free Radic Biol Med 52, 1403- […]\n3 Borges, G. et al. Bioavailability of multiple components following acute ingestion of a polyphenol-rich juice drink. Mol Nutr Food Res 54 Suppl 2, S268-277, […]\n4 Stalmach, A. et al. Absorption, metabolism, and excretion of green tea flavan-3-ols in humans with an ileostomy. Mol Nutr Food Res 54, 323-334,"}, "[4]": {"test": "Total [2-14C](−)-epicatechin-derived radioactivity in whole blood and plasma after oral intake", "assay_type": "in vivo, humans", "conditions": "human", "protocol": "as §1\nThe 50-mL drink consisted of an aqueous solution of ^14C-EC (specific activity 14.5 μCi μmol^−1) and delivered 60 mg (207 μmol) of EC and 300 μCi (660 × 10^6 dpm) of radioactivity. The drink was prepared one day before consumption to verify correctness of composition and stability. Volunteers received the ^14C-EC test drink (50 mL), followed by 3 × 50 mL of water that was used to rinse the test drink container, and 40 mL of water. The radioactivity remaining in the test drink containers was measured, and the residual radioactivity recovered from each container was subtracted from the amount administered to the corresponding volunteer.\nRadioactivity in aliquots of plasma and urine was measured by liquid scintillation counting. Blood and feces were dried and oxidized by combustion using a 307 Sample Oxidizer (Packard Instrument Company, Meriden, NH) before being analyzed by liquid scintillation counting."}, "[5]": {"test": "SREM profile in plasma after intragastric 14C-EC, rat", "assay_type": "in vivo, Sprague-Dawley rats", "conditions": "30 min after 2 mg/kg BW intragastric 14C-EC", "protocol": "as §3"}, "[6]": {"conditions": "all volunteers, post-consumption"}}, "note": "Several values for one entry are separate records, joined by “and”; a condition that tells them apart may be missing. Equal entries are not always repeated."}
{"smiles": "Oc1cc(O)c2c(c1)O[C@H](c1ccc(O)c(O)c1)[C@H](O)C2", "note": "[^14C-EC, [2-^14C](−)-epicatechin]", "values": [{"measurement": "Ingested 14C-EC absorbed via the colon / lower intestine", "setting": "[1]; from urinary RFM excretion", "value": "≈ 70% and 70%"}, {"measurement": "Ingested 14C-EC absorbed from the small intestine", "setting": "[1]; from urinary SREM excretion", "value": 20, "unit": "%"}, {"measurement": "Detection in plasma", "setting": "[2]", "value": "No unmetabolized EC was detected"}, {"measurement": "Levels of unmetabolized EC in plasma and urine", "setting": "[3]", "value": "below the limits of detection"}, {"measurement": "Association of whole blood radioactivity with plasma vs cellular components", "setting": "[4]", "value": "associated, almost exclusively, with plasma"}, {"measurement": "Time by which radioactivity in plasma fell below the limit of quantitation", "setting": "[4]; [6]", "value": "≤ 72", "unit": "h"}, {"measurement": "Time by which radioactivity in whole blood fell below the limit of quantitation", "setting": "[4]; [6]", "value": "≤ 36", "unit": "h"}, {"measurement": "Time after consumption at which radioactivity was detected in the circulation", "setting": "[4]; oral 60 mg 14C-EC", "value": 15, "unit": "min"}, {"measurement": "Total radioactivity in the circulatory system at Cmax, of the amount of 14C-EC ingested", "setting": "[4]; calculated from whole blood concentration and blood volume", "value": "< 2", "unit": "%"}, {"measurement": "Detection in plasma", "setting": "[5]", "value": "No unmetabolized EC and sulfated SREMs were detected"}]}
